Test results published in patent publication US7951562B2, “Method for glycosylating hydroxylysine residues in polypeptides or peptides” (Oulun Yliopisto, priority 2000, dated 2011).

What was measured:
Type in all cases: biochemical
[1] = target: T1, lysyl hydroxylase activity of His-tagged LH3 (Homo sapiens, UniProt O60568); assay: Inactivation of lysyl hydroxylase activity by imidazole
T1 construct: human LH1 signal peptide (N, cleaved yes); made in house; host or cells: Sf9 insect cells, baculovirus
T1 sequence (O60568 25-738): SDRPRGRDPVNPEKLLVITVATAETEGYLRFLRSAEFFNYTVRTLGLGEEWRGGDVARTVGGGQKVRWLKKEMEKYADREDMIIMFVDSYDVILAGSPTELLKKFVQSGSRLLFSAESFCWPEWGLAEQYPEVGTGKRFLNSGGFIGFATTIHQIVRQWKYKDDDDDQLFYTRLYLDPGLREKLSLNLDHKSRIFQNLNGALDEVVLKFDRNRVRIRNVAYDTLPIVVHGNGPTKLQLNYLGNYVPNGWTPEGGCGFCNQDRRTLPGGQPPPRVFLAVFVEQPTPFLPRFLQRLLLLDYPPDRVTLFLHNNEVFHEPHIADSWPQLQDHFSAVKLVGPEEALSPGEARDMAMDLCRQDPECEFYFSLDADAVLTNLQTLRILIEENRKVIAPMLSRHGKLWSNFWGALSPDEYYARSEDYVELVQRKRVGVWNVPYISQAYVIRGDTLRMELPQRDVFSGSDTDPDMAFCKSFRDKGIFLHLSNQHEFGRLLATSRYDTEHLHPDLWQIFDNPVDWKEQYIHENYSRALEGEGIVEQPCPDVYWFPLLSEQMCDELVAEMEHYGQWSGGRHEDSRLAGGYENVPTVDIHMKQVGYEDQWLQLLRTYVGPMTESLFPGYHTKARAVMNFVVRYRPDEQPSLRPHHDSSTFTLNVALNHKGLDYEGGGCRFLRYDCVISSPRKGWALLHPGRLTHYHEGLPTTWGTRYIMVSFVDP
Protocol: (§1) LH activity was assayed by a method based on the hydroxylation-coupled decarboxylation of 2-oxo(1-^14C)glutarate (Kivirikko and Myllylä 1982), synthetic peptide […] was used as a substrate. GGT activity was assayed as described elsewhere (Myllylä et al. 1975). The method is based on the transfer of radioactively (tritium) labelled glucose from UDP-glucose to galactosylhydroxylysyl residues in calf skin gelatin substrate and on the specific assay of the product of the enzyme reaction after alkaline hydrolysis.
(§2) LH3 was expressed in Sf9 cells as a protein with His-tag at the amino-terminus. This enabled us to use nickel column in the purification of the protein from the cell extract of insect cells, because nickel-charged agaroses are developed for the purification of recombinant proteins containing a polyhistidine (6×His) as a tag. […] No lysyl hydroxylase activity could be detected in the eluate, however. We have determined that imidazole is a potent inhibitor of lysyl hydroxylase activity. […] Imidazole in the concentration of 100 mM and 10 mM inactivated lysyl hydroxylase activity by 55% and 20%, respectively.

[2] = target: T2, GGT activity of His-tagged LH3 (Homo sapiens, UniProt O60568); assay: Effect of imidazole on GGT activity of His-tagged LH3 from Sf9 cells
T2 construct: human LH1 signal peptide (N, cleaved yes); made in house; host or cells: Sf9 insect cells, baculovirus (pFastBacI, BAC-TO-BAC)
T2 sequence (O60568 25-738): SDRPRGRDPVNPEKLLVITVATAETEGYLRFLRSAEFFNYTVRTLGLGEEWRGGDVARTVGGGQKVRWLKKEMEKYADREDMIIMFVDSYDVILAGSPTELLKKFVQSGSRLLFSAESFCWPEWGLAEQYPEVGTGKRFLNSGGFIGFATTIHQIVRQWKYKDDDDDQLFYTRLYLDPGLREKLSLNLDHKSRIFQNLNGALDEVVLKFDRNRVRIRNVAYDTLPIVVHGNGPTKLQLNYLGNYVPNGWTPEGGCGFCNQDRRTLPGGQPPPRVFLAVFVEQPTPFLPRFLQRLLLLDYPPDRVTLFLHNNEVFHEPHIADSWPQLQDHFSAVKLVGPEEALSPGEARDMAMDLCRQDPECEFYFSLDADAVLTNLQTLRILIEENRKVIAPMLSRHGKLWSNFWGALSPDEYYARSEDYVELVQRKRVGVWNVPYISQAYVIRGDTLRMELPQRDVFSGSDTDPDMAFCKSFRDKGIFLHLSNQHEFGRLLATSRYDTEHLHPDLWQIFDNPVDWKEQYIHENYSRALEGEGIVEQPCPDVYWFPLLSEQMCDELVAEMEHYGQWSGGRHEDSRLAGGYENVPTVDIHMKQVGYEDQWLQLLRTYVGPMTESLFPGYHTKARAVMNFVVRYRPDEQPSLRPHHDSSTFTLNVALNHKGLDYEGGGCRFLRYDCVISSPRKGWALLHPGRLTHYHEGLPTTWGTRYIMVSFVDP
Protocol: as §1, §2

[3] = target: T3, GT activity of the protein produced in E. coli cells with human LH3 cDNA (Homo sapiens, UniProt O60568); assay: Effect of imidazole on GT activity of protein produced in E. coli with human LH3 cDNA
T3 construct: made in house; host or cells: E. coli XL1-Blue (pQE30)
T3 sequence (O60568 25-738): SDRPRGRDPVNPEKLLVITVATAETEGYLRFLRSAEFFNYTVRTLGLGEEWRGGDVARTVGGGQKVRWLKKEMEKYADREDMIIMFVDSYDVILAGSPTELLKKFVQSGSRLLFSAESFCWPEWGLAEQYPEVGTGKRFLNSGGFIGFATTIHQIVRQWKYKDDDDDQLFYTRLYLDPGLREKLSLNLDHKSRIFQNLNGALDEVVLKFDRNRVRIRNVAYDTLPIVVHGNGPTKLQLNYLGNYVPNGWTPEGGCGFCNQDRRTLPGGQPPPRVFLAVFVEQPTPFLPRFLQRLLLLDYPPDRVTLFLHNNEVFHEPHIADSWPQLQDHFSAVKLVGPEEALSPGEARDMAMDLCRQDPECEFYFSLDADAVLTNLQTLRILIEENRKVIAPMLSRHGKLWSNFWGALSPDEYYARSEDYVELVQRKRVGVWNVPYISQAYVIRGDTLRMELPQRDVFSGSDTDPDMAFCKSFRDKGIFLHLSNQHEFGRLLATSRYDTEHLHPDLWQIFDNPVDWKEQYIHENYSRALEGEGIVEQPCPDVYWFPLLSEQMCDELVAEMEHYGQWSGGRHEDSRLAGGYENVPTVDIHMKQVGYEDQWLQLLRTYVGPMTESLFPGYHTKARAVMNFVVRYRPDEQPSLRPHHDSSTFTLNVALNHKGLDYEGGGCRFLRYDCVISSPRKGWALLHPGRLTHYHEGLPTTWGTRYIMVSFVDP
Protocol: (§3) PFastBacI constructs for human LH1, LH2a, LH2b and LH3 were cleaved with BamHI and Hind III restriction enzymes and coding regions were subcloned into same site in E. coli expression vector pQE30 containing (His)6 tag at the amino terminus. Insert for C. elegans LH (corresponding to amino acids 14-730 in cDNA) was generated by PCR and ligated into SacI-PstI site of pOE30 vector. Constructs were transformed into E. coli XL1-Blue strain. Cultures were grown to OD600 of 0.6 at 37° C. Protein expression was induced by adding 1 mM IPTG and incubation was proceed at 30° C. for 5 hours. Cells were harvested and stored at −20° C. For activity measurements cell pellet was suspended to lysis buffer (0.4 M NaCl, 0.5% Nonident and 20 mM Tris-HCl pH 7.8, at 20° C.) and incubated in the presence of lysozyme (50 μg/ml), DNAase (10 μg/ml) and RNAase (10 μg g/ml) at room temperature for 30 minutes. Lysis was completed by sonication. Cell debris was pelleted and supernatant was used in the measurements.
(§4) GT and GGT activities were measured by a method based on the transfer of radioactively (tritium)-labeled sugar from UDP-sugar to hydroxylysyl or galactosylhydroxylysyl residues in a calf skin gelatin substrate, respectively (Myllylä et al. 1975). The specific detection of the reaction products was performed after alkaline hydrolysis.

[4] = target: T4, GGT activity of the protein produced in E. coli cells with human LH3 cDNA (Homo sapiens, UniProt O60568); assay: Effect of imidazole on GGT activity of protein produced in E. coli with human LH3 cDNA
T4 construct: made in house; host or cells: E. coli XL1-Blue (pQE30)
T4 sequence (O60568 25-738): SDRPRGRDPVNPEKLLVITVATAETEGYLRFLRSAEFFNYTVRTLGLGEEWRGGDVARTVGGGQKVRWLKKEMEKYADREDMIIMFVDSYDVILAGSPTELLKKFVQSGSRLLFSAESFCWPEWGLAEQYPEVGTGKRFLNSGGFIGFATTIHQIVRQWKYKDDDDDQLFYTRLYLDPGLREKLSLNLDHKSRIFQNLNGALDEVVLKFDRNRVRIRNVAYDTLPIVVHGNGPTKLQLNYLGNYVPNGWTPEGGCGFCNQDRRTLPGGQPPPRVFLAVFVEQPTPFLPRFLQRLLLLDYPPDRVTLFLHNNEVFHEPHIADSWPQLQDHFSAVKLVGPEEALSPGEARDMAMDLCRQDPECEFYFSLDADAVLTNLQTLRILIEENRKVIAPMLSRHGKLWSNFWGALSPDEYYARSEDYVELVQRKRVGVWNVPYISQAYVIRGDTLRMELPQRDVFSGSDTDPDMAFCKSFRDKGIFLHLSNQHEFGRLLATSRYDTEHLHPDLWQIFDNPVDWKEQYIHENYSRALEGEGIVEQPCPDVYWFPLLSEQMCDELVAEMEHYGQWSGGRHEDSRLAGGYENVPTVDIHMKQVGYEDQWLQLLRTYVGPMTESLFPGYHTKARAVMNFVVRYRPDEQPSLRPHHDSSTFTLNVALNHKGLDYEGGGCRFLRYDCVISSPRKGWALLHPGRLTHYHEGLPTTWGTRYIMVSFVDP
Protocol: as §3, §4

For c1c[nH]cn1 [imidazole], the “inactivation of lysyl hydroxylase activity” value (shortened to “inactivation”) ([1]; 10 mM imidazole) was 20%, the “inactivation” value ([1]; 100 mM imidazole) was 55% and the “inactivation” value ([1]; 300 mM imidazole, 2 h on ice) was “almost complete inactivation”. For the same compound, the “effect on GGT activity” value ([2]; 10 mM to 100 mM imidazole) was “no effect”, the inhibition at 300000 µM ([2]; 300 mM imidazole) was 25% and the GT activity ([3]; 10 mM imidazole (no inhibitor: 760.000)) was 795.000 dpm/mg. It also gave a GT activity ([3]; 100 mM imidazole (no inhibitor: 760.000)) of 605.000 dpm/mg, an inhibition at 300000 µM ([3]; 300 mM imidazole) of 60% and a GT activity ([3]; 300 mM imidazole (no inhibitor: 760.000)) of 310.000 dpm/mg. The GGT activity ([4]; 10 mM imidazole (no inhibitor: 667.000)) was 583.000 dpm/mg, the GGT activity ([4]; 100 mM imidazole (no inhibitor: 667.000)) was 599.000 dpm/mg and the inhibition at 300000 µM ([4]; 300 mM imidazole) was ~30%. It also gave a GGT activity ([4]; 300 mM imidazole (no inhibitor: 667.000)) of 459.000 dpm/mg.
